Reference: BindingDB's records for doi:10.1021/jm00391a020 (1987)

Experiment: Kinetic constant for galactosyltransferase inhibition was determined

Structure (SMILES)	Ki
O=c1ccn([C@@H]2O[C@H](COP(=O)(O)OP(=O)(O)OP(=O)(O)O)[C@@H](O)[C@H]2O)c(=O)[nH]1 [uridine 5'-(tetrahydrogen triphosphate)]	128 µM
O=c1ccn(C2O[C@H](COP(=O)(O)OP(=O)(O)C3O[C@H](CO)[C@@H](O)[C@H](O)[C@H]3O)[C@@H](O)[C@H]2O)c(=O)[nH]1 (some centres not stated)	165 µM
